In article PMC5148701 (Journal of medicinal chemistry, 2016):
Read-outs that look alike come from different tables or passages of the source.

Assays:
hD2L receptors = hD2L receptors (Homo sapiens, UniProt P14416); assay: D2R Gi/o-mediated cAMP inhibition assay; format: cell-based; details: for Emax: HEK-293T
D2L receptors = D2L receptors (Homo sapiens, UniProt P14416); assay: D2R β-arrestin-2 recruitment Tango assay; format: cell-based; details: for Emax: HTLA, read-out: β-arrestin Emax (%); for EC50: β-arrestin EC50 (nM), HTLA cells
[1] = read-out: cAMP Emax (%), HEK293T cells, GloSensor-22F, normalized to maximum cAMP inhibition by quinpirole (100%)

D2L receptors, sequence (P14416 whole entry): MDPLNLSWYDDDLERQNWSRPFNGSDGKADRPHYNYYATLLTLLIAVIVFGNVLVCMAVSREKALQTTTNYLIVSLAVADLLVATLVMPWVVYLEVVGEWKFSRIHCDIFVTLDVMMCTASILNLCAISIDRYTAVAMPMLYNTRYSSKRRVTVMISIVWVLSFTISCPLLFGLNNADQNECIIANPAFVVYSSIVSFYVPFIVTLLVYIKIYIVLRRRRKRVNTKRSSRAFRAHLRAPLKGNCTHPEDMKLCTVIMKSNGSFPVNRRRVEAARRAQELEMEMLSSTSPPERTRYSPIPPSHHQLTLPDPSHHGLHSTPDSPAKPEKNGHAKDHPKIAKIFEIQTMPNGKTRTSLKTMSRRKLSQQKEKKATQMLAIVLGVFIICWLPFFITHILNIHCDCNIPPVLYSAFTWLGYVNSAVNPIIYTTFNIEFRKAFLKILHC
hD2L receptors, sequence (P14416 whole entry): as above

| SMILES | Emax (hD2L receptors; read-out: cAMP Emax (%)) [%] | Emax (D2L receptors) [%] | EC50 (D2L receptors; Tango assay) [nM] | Emax (hD2L receptors; [1]) [%] | further results |
| --- | --- | --- | --- | --- | --- |
| Cc1nc2cc(OCCCN3CCN(c4cccc(Cl)c4Cl)CC3)ccc2s1 [Compound 2, 5-(3-(4-(2,3-Dichlorophenyl)piperazin-1-yl)propoxy)-2-methylbenzo[d]thiazole] | – | – | – | – | D2R agonist profile in β-arrestin and Gi/o pathways (hD2L receptors; compared with β-arrestin recruitment Tango assay): balanced D2R agonist |
| Cc1nc2ccc(OCCCCN3CCN(c4cccc(Cl)c4Cl)CC3)cc2s1 [Compound 3, 6-(4-(4-(2,3-Dichlorophenyl)piperazin-1-yl)butoxy)-2-methylbenzo[d]thiazole] | 42 | 22 | 76 | – | decrease of potency in Gi/o pathway compared to compound 1 (hD2L receptors; cAMP inhibition assay): 2 fold; decrease of potency in β-arrestin recruitment compared to compound 1 (D2L receptors; Tango assay): 5 fold |
| Clc1nc2cc(OCCCCN3CCN(c4cccc(Cl)c4Cl)CC3)ccc2s1 [Compound 6, 2-Chloro-5-(4-(4-(2,3-dichlorophenyl)piperazin-1-yl)butoxy)benzo[d]thiazole] | – | 40 | 48 | 50 | – |
| O=c1[nH]c2cc(OCCCCN3CCN(c4cccc(Cl)c4Cl)CC3)ccc2s1 [Compound 7, 5-(4-(4-(2,3-Dichlorophenyl)piperazin-1-yl)butoxy)benzo[d]thiazol-2(3H)-one] | 67 | 59 | 2.6 | – | – |
| FC(F)(F)c1nc2cc(OCCCCN3CCN(c4cccc(Cl)c4Cl)CC3)ccc2s1 [Compound 11, 5-(4-(4-(2,3-Dichlorophenyl)piperazin-1-yl)butoxy)-2-(trifluoromethyl)benzo[d]thiazole] | – | 40 | – | – | – |
| CCc1nc2cc(OCCCCN3CCN(c4cccc(Cl)c4Cl)CC3)ccc2s1 [Compound 18, 5-(4-(4-(2,3-Dichlorophenyl)piperazin-1-yl)butoxy)-2-ethylbenzo[d]thiazole] | – | < 20 | – | 43 | – |
| CC(C)c1nc2cc(OCCCCN3CCN(c4cccc(Cl)c4Cl)CC3)ccc2s1 [Compound 19, 5-(4-(4-(2,3-Dichlorophenyl)piperazin-1-yl)butoxy)-2-isopropylbenzo[d]thiazole] | – | < 20 | – | 33 | – |
| CN(C)c1nc2cc(OCCCCN3CCN(c4cccc(Cl)c4Cl)CC3)ccc2s1 [Compound 25, 5-(4-(4-(2,3-Dichlorophenyl)piperazin-1-yl)butoxy)-N,N-dimethylbenzo[d]thiazol-2-amine] | – | – | – | – | activity in Gi/o signaling (in words) (hD2L receptors; cAMP inhibition assay): did not show any activity; activity in β-arrestin recruitment (in words) (D2L receptors; Tango assay): did not show any activity |
| Cc1nc2cc(OCCCCN3CCC(c4cccc(Cl)c4Cl)CC3)ccc2s1 [Compound 30, 5-(4-(4-(2,3-Dichlorophenyl)piperidin-1-yl)butoxy)-2-methylbenzo[d]thiazole] | 66 | 31 | 49 | – | – |
| Cc1nc2cc(OCCCCN3CCCN(c4cccc(Cl)c4Cl)CC3)ccc2s1 [Compound 31, 5-(4-(4-(2,3-Dichlorophenyl)-1,4-diazepan-1-yl)butoxy)-2-methylbenzo[d]thiazole] | 22 | < 20 | – | – | activity in β-arrestin recruitment (in words) (D2L receptors; Tango assay): inactive |
| COc1ccccc1N1CCN(CCCCOc2ccc3sc(C)nc3c2)CC1 [Compound 32, 5-(4-(4-(2-Methoxyphenyl)piperazin-1-yl)butoxy)-2-methylbenzo[d]thiazole] | 61 | 25 | 8.5 | – | decrease of potency in Gi/o pathway compared to compound 1 (hD2L receptors; cAMP inhibition assay): around 5 fold |
| CCc1nc2cc(OCCCCN3CCN(c4cccc5c4OCCN5)CC3)ccc2s1 [Compound 50, 8-(4-(4-((2-Ethylbenzo[d]thiazol-5-yl)oxy)butyl)piperazin-1-yl)-3,4-dihydro-2H-benzo[b][1,4]oxazine] | – | 33 | 6.4 | – | – |
| CC(C)c1nc2cc(OCCCCN3CCN(c4cccc5c4OCCN5)CC3)ccc2s1 [Compound 51, 8-(4-(4-((2-Isopropylbenzo[d]thiazol-5-yl)oxy)butyl)piperazin-1-yl)-3,4-dihydro-2H-benzo[b][1,4]oxazine] | – | – | – | 48 | – |
